{
  "source": "patent US12240839B2",
  "about": "“Cyclobutyl dihydroquinoline sulfonamide compounds” (AMGEN INC., priority 2020, dated 2025)",
  "test_system": "CYP3A4",
  "test": "Human CYP3A4 induction assay (mRNA, cryopreserved human hepatocytes)",
  "settings": "10 uM test compound, 72 hours, percent of control (rifampin positive control)",
  "description": "Human CYP3A4 Induction Assay\nCryopreserved human hepatocytes were seeded in 96-well collagen coated plates at 70,000 cells per well in hepatocyte plating media (HPM, final concentrations: 1× Dulbecco's Modified Eagle's Medium, 0.1 μM dexamethasone, 10% fetal bovine serum, 1×ITS, 1×PSG) followed by incubation at 37° C. under 5% CO2 and 90% relative humidity for 2 days to allow hepatocytes to form a confluent layer. On Day 3, hepatocytes were treated with either test compound or rifampin (20 μM, positive control for CYP3A induction) prepared in hepatocyte incubation media ((HIM, final concentrations: 1× William's Medium E, 0.1 μM dexamethasone, 1×ITS, 1×PSG). Treatment was performed for 72 hours with either 2 concentrations (2 μM or 10 μM) or a range of concentrations (0.001 μM to 100 μM) of the test compound to obtain full dose-response curve. Fresh media containing the relevant concentrations of the test compound was replaced every day until the samples were processed. After 72 hours of incubation, samples were processed for mRNA analysis using bDNA technology using manufacturer's instructions (Affymetrix, Fremont, CA). Cell viability was tested at the end of the experiment using MTT assay kit (Roche Diagnostics, Basel, Switzerland). Data was analyzed and presented as percent of control (POC) and Emax and EC50 obtained when appropriate according to guidance from Center for Drug Evaluation and Research (CDER), 2006, Guidance for Industry, Drug Interaction Studies—Study Design, Data Analysis, and Implications for Dosing and Labeling.",
  "data": [
    {"smiles": "COc1cc(C2CC(F)(F)C2)c(F)cc1-n1c(=O)ccc2cc(S(=O)(=O)Nc3ccon3)ccc21", "note": "(atropisomer, axis not shown; (P)) [Example 4, (P)-1-(4-(3,3-difluorocyclobutyl)-5-fluoro-2-methoxyphenyl)-N-(isoxazol-3-yl)-2-oxo-1,2-dihydroquinoline-6-sulfonamide]", "values": [
      {"measurement": "Hu CYP3A4 mRNA Induction (10 uM POC)", "result": 14.71, "unit": "%"}
    ]},
    {"smiles": "COc1cc([C@H]2C[C@](F)(C(F)(F)F)C2)c(Cl)cc1-n1c(=O)ccc2cc(S(=O)(=O)Nc3ccon3)ccc21", "note": "(atropisomer, axis not shown; (P)) [Example 10, cis-(P)-1-(5-chloro-4-(3-fluoro-3-(trifluoromethyl)cyclobutyl)-2-methoxyphenyl)-N-(isoxazol-3-yl)-2-oxo-1,2-dihydroquinoline-6-sulfonamide]", "values": [
      {"measurement": "Hu CYP3A4 mRNA Induction (10 uM POC)", "result": 5.66, "unit": "%"}
    ]},
    {"smiles": "COc1cc([C@H]2C[C@@](F)(C(F)(F)F)C2)c(Cl)cc1-n1c(=O)ccc2cc(S(=O)(=O)Nc3ccon3)ccc21", "note": "(atropisomer, axis not shown; (P)) [Example 11, trans-(P)-1-(5-chloro-4-(3-fluoro-3-(trifluoromethyl)cyclobutyl)-2-methoxyphenyl)-N-(isoxazol-3-yl)-2-oxo-1,2-dihydroquinoline-6-sulfonamide]", "values": [
      {"measurement": "Hu CYP3A4 mRNA Induction (10 uM POC)", "result": 7.29, "unit": "%"}
    ]},
    {"smiles": "COc1cc(C2CCC2)c(F)cc1-n1c(=O)ccc2cc(S(=O)(=O)Nc3ccon3)ccc21", "note": "(atropisomer, axis not shown; (P)) [Example 14, (P)-1-(4-cyclobutyl-5-fluoro-2-methoxyphenyl)-N-(isoxazol-3-yl)-2-oxo-1,2-dihydroquinoline-6-sulfonamide]", "values": [
      {"measurement": "Hu CYP3A4 mRNA Induction (10 uM POC)", "result": 18.3, "unit": "%"}
    ]},
    {"smiles": "COc1cc([C@H]2C[C@H](C(F)(F)F)C2)c(F)cc1-n1c(=O)ccc2cc(S(=O)(=O)Nc3ncccn3)ccc21", "note": "(atropisomer, axis not shown; (P)) [Example 15, trans-(P)-1-(5-fluoro-2-methoxy-4-(3-(trifluoromethyl)cyclobutyl)phenyl)-2-oxo-N-(pyrimidin-2-yl)-1,2-dihydroquinoline-6-sulfonamide]", "values": [
      {"measurement": "Hu CYP3A4 mRNA Induction (10 uM POC)", "result": 36, "unit": "%"}
    ]},
    {"smiles": "COc1cc([C@H]2C[C@@H](C(F)(F)F)C2)c(Cl)cc1-n1c(=O)ccc2cc(S(=O)(=O)Nc3ncccn3)ccc21", "note": "(atropisomer, axis not shown; (P)) [Example 16, cis-(P)-1-(5-chloro-2-methoxy-4-(3-(trifluoromethyl)cyclobutyl)phenyl)-2-oxo-N-(pyrimidin-2-yl)-1,2-dihydroquinoline-6-sulfonamide]", "values": [
      {"measurement": "Hu CYP3A4 mRNA Induction (10 uM POC)", "result": 130.1, "unit": "%"}
    ]},
    {"smiles": "COc1cc([C@H]2C[C@H](C(F)(F)F)C2)c(Cl)cc1-n1c(=O)ccc2cc(S(=O)(=O)Nc3ncccn3)ccc21", "note": "(atropisomer, axis not shown; (P)) [Example 17, trans-(P)-1-(5-chloro-2-methoxy-4-(3-(trifluoromethyl)cyclobutyl)phenyl)-2-oxo-N-(pyrimidin-2-yl)-1,2-dihydroquinoline-6-sulfonamide]", "values": [
      {"measurement": "Hu CYP3A4 mRNA Induction (10 uM POC)", "result": 61.91, "unit": "%"}
    ]},
    {"smiles": "COc1cc(C2CCC2)c(Cl)cc1-n1c(=O)ccc2cc(S(=O)(=O)Nc3ncccn3)ccc21", "note": "(atropisomer, axis not shown; (P)) [Example 18, (P)-1-(5-chloro-4-cyclobutyl-2-methoxyphenyl)-2-oxo-N-(pyrimidin-2-yl)-1,2-dihydroquinoline-6-sulfonamide]", "values": [
      {"measurement": "Hu CYP3A4 mRNA Induction (10 uM POC)", "result": 20.78, "unit": "%"}
    ]},
    {"smiles": "COc1cc([C@H]2C[C@H](C(F)(F)F)C2)c(Cl)cc1-n1c(=O)ccc2cc(S(=O)(=O)Nc3cccnn3)ccc21", "note": "(atropisomer, axis not shown; (P)) [Example 19, trans-(P)-1-(5-chloro-2-methoxy-4-(3-(trifluoromethyl)cyclobutyl)phenyl)-2-oxo-N-(pyridazin-3-yl)-1,2-dihydroquinoline-6-sulfonamide]", "values": [
      {"measurement": "Hu CYP3A4 mRNA Induction (10 uM POC)", "result": 60.73, "unit": "%"}
    ]}
  ]
}
